Values after ≈ are worked out from the molar mass of the structure shown. Marks after values point to notes of the source that are not given here.
Tests used:
[1] = tested on: L1210 Cells; test: Cytotoxicity against L1210 cells; type: cell-based; details: Mus musculus, read-out: ID50 (the source's name)
[2] = tested on: Human Lung Xenograft; test: Animal tumor screening, human lung xenograft; type: in vivo; design: key: -X= Borderline activity shown.; X= Activity shown. The initial endpoint is less stringent and is indicative of statistical significance.; XX= Outstanding activity shown and a proportion of "cures" produced. The stringent endpoint is indicative of sufficient antitumor selectivity to warrant consideration for development toward clinical trial.; No= No activity shown
[3] = tested on: Mouse Colon 38; test: Animal tumor screening, mouse colon 38; type: in vivo; design: key: -X= Borderline activity shown.; X= Activity shown. The initial endpoint is less stringent and is indicative of statistical significance.; XX= Outstanding activity shown and a proportion of "cures" produced. The stringent endpoint is indicative of sufficient antitumor selectivity to warrant consideration for development toward clinical trial.; No= No activity shown
[4] = tested on: Human Mammary Xenograft; test: Animal tumor screening, human mammary xenograft; type: in vivo; design: key: -X= Borderline activity shown.; X= Activity shown. The initial endpoint is less stringent and is indicative of statistical significance.; XX= Outstanding activity shown and a proportion of "cures" produced. The stringent endpoint is indicative of sufficient antitumor selectivity to warrant consideration for development toward clinical trial.; No= No activity shown
[5] = tested on: Mouse Melanoma B16; test: Animal tumor screening, mouse melanoma B16; type: in vivo; design: key: -X= Borderline activity shown.; X= Activity shown. The initial endpoint is less stringent and is indicative of statistical significance.; XX= Outstanding activity shown and a proportion of "cures" produced. The stringent endpoint is indicative of sufficient antitumor selectivity to warrant consideration for development toward clinical trial.; No= No activity shown
[6] = tested on: Mluse Lewis Lung; test: Animal tumor screening, mouse Lewis lung; type: in vivo; design: key: -X= Borderline activity shown.; X= Activity shown. The initial endpoint is less stringent and is indicative of statistical significance.; XX= Outstanding activity shown and a proportion of "cures" produced. The stringent endpoint is indicative of sufficient antitumor selectivity to warrant consideration for development toward clinical trial.; No= No activity shown
[7] = tested on: Mouse Leukemia L1210; test: Animal tumor screening, response of L1210 leukemia in mice; type: in vivo; design: key to Activiity: -X= Borderline activity shown.; X= Activity shown. The initial endpoint is less stringent and is indicative of statistical significance.; XX= Outstanding activity shown and a proportion of "cures" produced. The stringent endpoint is indicative of sufficient antitumor selectivity to warrant consideration for development toward clinical trial.; No= No activity shown; details: for T/C(%) / "Cures": Daily x 9
[8] = tested on: Mouse Mammary CD8F1; test: Animal tumor screening, mouse mammary CD8F1; type: in vivo; design: key: -X= Borderline activity shown.; X= Activity shown. The initial endpoint is less stringent and is indicative of statistical significance.; XX= Outstanding activity shown and a proportion of "cures" produced. The stringent endpoint is indicative of sufficient antitumor selectivity to warrant consideration for development toward clinical trial.; No= No activity shown; details: treatment started 34 days after tumor implant (advanced-stage tumor)
[9] = tested on: Mouse Leukemia P3888; test: Animal tumor screening, mouse leukemia P388; type: in vivo; design: key: -X= Borderline activity shown.; X= Activity shown. The initial endpoint is less stringent and is indicative of statistical significance.; XX= Outstanding activity shown and a proportion of "cures" produced. The stringent endpoint is indicative of sufficient antitumor selectivity to warrant consideration for development toward clinical trial.; No= No activity shown

CC(O)(C=CC1CC=CC(=O)O1)C(O)CC(O)C=CC=CC=CCO (stereo not shown) [CL 1565-A alcohol, 5,6-Dihydro-6-(3,4,6,13-tetrahydroxy-3-methyl-l,7,9, 11-tridecatetraenyl)-2H-pyran-2-one]
IC50 [1]: 2.5 µg/mL (≈ 7.13 µM)

CC(=O)OCC=CC=CC=CC(CC(OP(=O)(O)O)C(C)(O)C=CC1CC=CC(=O)O1)OC(C)=O.[Na] (stereo not shown) [CL 1565-A Diacetate, Sodium Salt, 6-[6,13-Bis(acetyloxy)-3-hydroxy-3-methyl-4-(phosphonooxy)-1,7,9,11-tridecatetraenyl]-5,6-dihydro-2H-pyran-2-one, sodium salt]
IC50 [1]: ~6 µg/mL

CC(O)(C=CC1CC=CC(=O)O1)C(CC(O)C=CC=CC=CCO)OP(=O)(O)O (stereo not shown) [CL 1565-A, 5,6-dihydro-6-(3,6,13-trihydroxy-3-methyl-4-(phosphonooxy)-1,7,9,11-tridecatetraenyl)-2H-pyran-2-one]
Activiity [2]: No
Activiity [3]: X
Activiity [4]: -X
Activiity [5]: No
Activiity [6]: No
Activiity ([7]; Mouse Leukemia L1210): XX (curative)
T/C(%) ([7]; Test 1, 6.25 mg/kg/dose): 207%
"Cures" ([7]; Test 1, 6.25 mg/kg/dose, 30-day survivors are considered cures): 0/6^e
T/C(%) ([7]; Test 2, 3.12 mg/kg/dose): 191%
"Cures" ([7]; Test 2, 3.12 mg/kg/dose, survivors at completion of observation period): 0/6
T/C(%) ([7]; Test 2, 6.25 mg/kg/dose): 194%
"Cures" ([7]; Test 2, 6.25 mg/kg/dose, survivors at completion of observation period): 1/6
T/C(%) ([7]; Test 2, 12.50 mg/kg/dose): 337%
"Cures" ([7]; Test 2, 12.50 mg/kg/dose, survivors at completion of observation period): 3/6
T/C(%) ([7]; Test 3, 1.56 mg/kg/dose): 150%
"Cures" ([7]; Test 3, 1.56 mg/kg/dose, survivors at completion of observation period): 0/6
T/C(%) ([7]; Test 3, 3.12 mg/kg/dose): 195%
"Cures" ([7]; Test 3, 3.12 mg/kg/dose, survivors at completion of observation period): 0/6
T/C(%) ([7]; Test 3, 6.25 mg/kg/dose): 216%
"Cures" ([7]; Test 3, 6.25 mg/kg/dose, survivors at completion of observation period): 0/6
T/C(%) ([7]; Test 3, 12.50 mg/kg/dose): 246%
"Cures" ([7]; Test 3, 12.50 mg/kg/dose, 45-day observation period): 0/6^f
T/C(%) ([7]; Test 4, 3.12 mg/kg/dose): 194%
"Cures" ([7]; Test 4, 3.12 mg/kg/dose, survivors at completion of observation period): 0/6
T/C(%) ([7]; Test 4, 6.25 mg/kg/dose): 236%
"Cures" ([7]; Test 4, 6.25 mg/kg/dose, survivors at completion of observation period): 1/6
T/C(%) ([7]; Test 4, 12.50 mg/kg/dose): 268%
"Cures" ([7]; Test 4, 12.50 mg/kg/dose, survivors at completion of observation period): 0/6^g
curative effect in the L1210 tumor mouse model ([7]; result in words): curative
survival period of mice inoculated with mouse leukemia L1210 ([7]; result in words): significantly prolongs the survival period
Activiity [8]: Xa
Activiity [9]: X
